Source: patent US9079866B2, “Flap modulators” (JANSSEN PHARMACEUTICA NV, priority 2013, dated 2015)
Where two headings read alike, the source gives them in different places.

Legend:
[1] = test system: leukotriene pathway in human whole blood (LTB4 levels); assay: Human whole blood assay (A23187-stimulated LTB4); assay type: cell-based; conditions: Homo sapiens, read-out: LTB4 IC50 1:1
In short: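 Heparinised human whole blood diluted 1:1 in RPMI, pre-incubated 15 min at 37° Celsius with compound, then stimulated with A23187 (7 μg/mL) for 30 min at 37° Celsius. Plasma LTB4 measured by immunoassay kit; IC50 from 4-parameter fit; single replicate per plate, at least one healthy donor.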

human FLAP = human FLAP (Homo sapiens (Human), UniProt P20292); assay: FLAP binding assay (HTRF format); conditions: wild type FLAP, HTRF format
Sequence of human FLAP (P20292 whole entry): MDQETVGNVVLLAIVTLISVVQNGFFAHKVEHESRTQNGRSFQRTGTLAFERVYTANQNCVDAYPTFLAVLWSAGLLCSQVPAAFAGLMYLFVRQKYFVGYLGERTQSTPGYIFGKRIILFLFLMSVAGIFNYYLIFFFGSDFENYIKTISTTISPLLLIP
In short: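 HTRF ratio read-out; two independent plates, samples in duplicate on each, values averaged across plates.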

[2] = human whole blood diluted 1:1, A23187-stimulated

SMILES	IC50 [1, 2] [nM]	Ki (human FLAP) [nM]	IC50 [1] [nM]
Nc1nccc(Oc2ccccc2-c2ccc(-c3cnc4[nH]ccc4c3)c(F)c2)n1 [Example 523, 4-{[3′-Fluoro-4′-(1H-pyrrolo[2,3-b]pyridin-5-yl)biphenyl-2-yl]oxy}pyrimidin-2-amine]	25	1	–
Nc1ccnc(Oc2ccccc2-c2ccc(-c3cnc4[nH]ccc4c3)c(F)c2)n1 [Example 524, 2-{[3′-Fluoro-4′-(1H-pyrrolo[2,3-b]pyridin-5-yl)biphenyl-2-yl]oxy}pyrimidin-4-amine]	18	1	–
Fc1cc(-c2ccccc2Oc2ncccn2)ccc1-c1cnc2[nH]ccc2c1 [Example 525, 5-[3-Fluoro-2′-(pyrimidin-2-yloxy)biphenyl-4-yl]-1H-pyrrolo[2,3-b]pyridine]	36	3	–
Nc1ncc(-c2ccc(-c3ccccc3Oc3ncccn3)cc2F)cn1 [Example 527, 5-[3-Fluoro-2′-(pyrimidin-2-yloxy)biphenyl-4-yl]pyrimidin-2-amine]	183	74	–
Nc1cnc(-c2ccc(-c3ccccc3Oc3nccc(N)n3)cc2F)cn1 [Example 528, 2-{[4′-(5-Aminopyrazin-2-yl)-3′-fluorobiphenyl-2-yl]oxy}pyrimidin-4-amine]	34	5	–
Nc1ccnc(Oc2ccccc2-c2ccc(-c3cnc(N)nc3)c(F)c2)n1 [Example 529, 5-{2′-[(4-Aminopyrimidin-2-yl)oxy]-3-fluorobiphenyl-4-yl}pyrimidin-2-amine]	90	36	–
N#Cc1cccc(COc2ccccc2-c2ccc(-c3cnc(N)cn3)c(F)c2)n1 [Example 530, 6-({[4′-(5-Aminopyrazin-2-yl)-3′-fluorobiphenyl-2-yl]oxy}methyl)pyridine-2-carbonitrile]	1110	34	–
N#Cc1cccnc1COc1ccccc1-c1ccc(-c2cnc(N)cn2)c(F)c1 [Example 531, 2-({[4′-(5-Aminopyrazin-2-yl)-3′-fluorobiphenyl-2-yl]oxy}methyl)pyridine-3-carbonitrile]	323	8	–
N#Cc1cccnc1Oc1ccccc1-c1ccc(-c2cnc(N)cn2)c(F)c1 [Example 532, 2-{[4′-(5-Aminopyrazin-2-yl)-3′-fluorobiphenyl-2-yl]oxy}pyridine-3-carbonitrile]	32	6	–
Nc1cnc(-c2ccc(-c3ccccc3Oc3ccnc(N)n3)cc2F)cn1 [Example 533, 4-{[4′-(5-Aminopyrazin-2-yl)-3′-fluorobiphenyl-2-yl]oxy}pyrimidin-2-amine]	23	5	–
Nc1ncc(-c2ccc(-c3ccccc3Oc3ccnc(N)n3)cc2F)cn1 [Example 534, 4-{[4′-(2-Aminopyrimidin-5-yl)-3′-fluorobiphenyl-2-yl]oxy}pyrimidin-2-amine]	69	12	–
Nc1cnc(-c2ccc(-c3ccccc3Oc3cc(N)ncn3)cc2F)cn1 [Example 535, 6-{[4′-(5-Aminopyrazin-2-yl)-3′-fluorobiphenyl-2-yl]oxy}pyrimidin-4-amine]	17	1	–
Nc1cc(Oc2ccccc2-c2ccc(-c3cnc(N)nc3)c(F)c2)ncn1 [Example 536, 5-{2′-[(6-Aminopyrimidin-4-yl)oxy]-3-fluorobiphenyl-4-yl}pyrimidin-2-amine]	68	21	–
N#Cc1cc(Oc2ccccc2-c2ccc(-c3cnc(N)cn3)c(F)c2)ccn1 [Example 537, 4-{[4′-(5-Aminopyrazin-2-yl)-3′-fluorobiphenyl-2-yl]oxy}pyridine-2-carbonitrile]	42	3	–
Nc1cnc(-c2ccc(-c3ccccc3Oc3cc(N4CCC4)ncn3)cc2F)cn1 [Example 539, 5-{2′-[(6-Azetidin-1-ylpyrimidin-4-yl)oxy]-3-fluorobiphenyl-4-yl}pyrazin-2-amine]	52	2	–
Nc1ncc(-c2ccc(-c3ccccc3Oc3cc(N4CCC4)ncn3)cc2F)cn1 [Example 540, 5-{2′-[(6-Azetidin-1-ylpyrimidin-4-yl)oxy]-3-fluorobiphenyl-4-yl}pyrimidin-2-amine]	85	16	–
C[Si](C)(C)CCOCOc1cc(C(F)(F)F)ccc1-c1ccc(-c2cnc(N)nc2)c(F)c1 [Example 557, 5-[3-Fluoro-4′-(trifluoromethyl)-2′-{[2-(trimethylsilyl)ethoxy]methoxy}biphenyl-4-yl]-pyrimidin-2-amine]	–	147	1070

Further lines, with some results ahead:

IC50 [1, 2] [nM]	Ki (human FLAP) [nM]	SMILES	IC50 [1] [nM]
66	12	Cc1nccc(Oc2ccccc2-c2ccc(-c3cnc(N)cn3)c(F)c2)n1 [Example 541, 5-{3-Fluoro-2′-[(2-methylpyrimidin-4-yl)oxy]biphenyl-4-yl}pyrazin-2-amine]	–
311	107	Cc1nccc(Oc2ccccc2-c2ccc(-c3cnc(N)nc3)c(F)c2)n1 [Example 542, 5-{3-Fluoro-2′-[(2-methylpyrimidin-4-yl)oxy]penyl-4-yl}pyrimidin-2-amine]	–
4160	444	Fc1cc(-c2ccccc2Oc2ncccn2)ccc1-c1ccc2[nH]cnc2c1 [Example 543, 5-[3-Fluoro-2′-(pyrimidin-2-yloxy)biphenyl-4-yl]-1H-benzimidazole]	–
1650	28	Fc1cc(-c2ccccc2Oc2ncccn2)ccc1-c1cnc2[nH]cnc2c1 [Example 544, 6-[3-Fluoro-2′-(pyrimidin-2-yloxy)biphenyl-4-yl]-3H-imidazo[4,5-b]pyridine]	–
50	12	Cc1ccnc(Oc2ccccc2-c2ccc(-c3cnc(N)cn3)c(F)c2)n1 [Example 545, 5-{3-Fluoro-2′-[(4-methylpyrimidin-2-yl)oxy]biphenyl-4-yl}pyrazin-2-amine]	–
253	148	Cc1ccnc(Oc2ccccc2-c2ccc(-c3cnc(N)nc3)c(F)c2)n1 [Example 546, 5-{3-Fluoro-2′-[(4-methylpyrimidin-2-yl)oxy]biphenyl-4-yl}pyrimidin-2-amine]	–
104	35	Nc1cnc(-c2ccc(-c3ccccc3Oc3ccnc(C(F)(F)F)n3)cc2F)cn1 [Example 547, 5-(3-Fluoro-2′-{[2-(trifluoromethyl)pyrimidin-4-yl]oxy}biphenyl-4-yl)pyrazin-2-amine]	–
741	467	Nc1ncc(-c2ccc(-c3ccccc3Oc3ccnc(C(F)(F)F)n3)cc2F)cn1 [Example 548, 5-(3-Fluoro-2′-{[2-(trifluoromethyl)pyrimidin-4-yl]oxy}biphenyl-4-yl)pyrimidin-2-amine]	–
123	9	COc1cnc(Oc2ccccc2-c2ccc(-c3cnc(N)cn3)c(F)c2)nc1 [Example 549, 5-{3-Fluoro-2′-[(5-methoxypyrimidin-2-yl)oxy]biphenyl-4-yl}pyrazin-2-amine]	–
16	2	COc1cnc(Oc2ccccc2-c2ccc(-c3cnc(N)nc3)c(F)c2)nc1 [Example 550, 5-{3-Fluoro-2′-[(5-methoxypyrimidin-2-yl)oxy]biphenyl-4-yl}pyrimidin-2-amine]	–
102	5	Nc1ncc(-c2ccc(-c3ccc(C(F)(F)F)cc3Oc3ncccn3)cc2F)cn1 [Example 552, 5-[3-Fluoro-2′-(pyrimidin-2-yloxy)-4′-(trifluoromethyl)biphenyl-4-yl]pyrimidin-2-amine]	–
39	2	Nc1cnc(-c2ccc(-c3ccc(C(F)(F)F)cc3O)cc2F)cn1 [Example 554, 4′-(5-Aminopyrazin-2-yl)-3′-fluoro-4-(trifluoromethyl)biphenyl-2-ol]	–
24	2	Nc1cnc(-c2ccc(-c3ccc(C(F)(F)F)cc3Oc3ccnc(N)n3)cc2F)cn1 [Example 555, 4-{[4′-(5-Aminopyrazin-2-yl)-3′-fluoro-4-(trifluoromethyl)biphenyl-2-yl]oxy}pyrimidin-2-amine]	–
13	1	Nc1cnc(-c2ccc(-c3ccc(C(F)(F)F)cc3Oc3nccc(N)n3)cc2F)cn1 [Example 556, 2-{[4′-(5-Aminopyrazin-2-yl)-3′-fluoro-4-(trifluoromethyl)biphenyl-2-yl]oxy}pyrimidin-4-amine]	–
210	12	Nc1ncc(-c2ccc(-c3ccc(C(F)(F)F)cc3O)cc2F)cn1 [Example 558, 4′-(2-Aminopyrimidin-5-yl)-3′-fluoro-4-(trifluoromethyl)biphenyl-2-ol]	–
55	2	Nc1ccnc(Oc2cc(C(F)(F)F)ccc2-c2ccc(-c3cnc(N)nc3)c(F)c2)n1 [Example 559, 5-{2′-[(4-Aminopyrimidin-2-yl)oxy]-3-fluoro-4′-(trifluoromethyl)biphenyl-4-yl}pyrimidin-2-amine]	–
95	5	Nc1ncc(-c2ccc(-c3ccc(C(F)(F)F)cc3Oc3ccnc(N)n3)cc2F)cn1 [Example 560, 4-{[4′-(2-Aminopyrimidin-5-yl)-3′-fluoro-4-(trifluoromethyl)biphenyl-2-yl]oxy}pyrimidin-2-amine]	–
43	4	Nc1cc(Oc2cc(C(F)(F)F)ccc2-c2ccc(-c3cnc(N)nc3)c(F)c2)ncn1 [Example 561, 5-{2′-[(6-Aminopyrimidin-4-yl)oxy]-3-fluoro-4′-(trifluoromethyl)biphenyl-4-yl}pyrimidin-2-amine]	–
226	55	Nc1cnc(-c2ccc(-c3ccc(C(F)(F)F)cc3C(F)(F)F)cc2F)cn1 [Example 562, 5-[3-Fluoro-2′,4′-bis(trifluoromethyl)biphenyl-4-yl]pyrazin-2-amine]	–
328	20	N#Cc1cc(C(F)(F)F)ccc1-c1ccc(-c2cnc(N)cn2)c(F)c1 [Example 563, 4′-(5-Aminopyrazin-2-yl)-3′-fluoro-4-(trifluoromethyl)biphenyl-2-carbonitrile]	–
